The values that follow come from patent US4451467A, “4(3H)-Quinazolinone derivatives, process for production thereof, and pharmaceutical compositions comprising said compounds” (Ishikawa; Masayuki, priority 1981, dated 1984).

Common to all, as to format: in vivo
Series [1] deals with normotensive dogs anesthetized with pentobarbital sodium. The experiment in a line: Hypotensive effect on anesthetized dogs (intravenous). Conditions: i.v.; for hypotensive effect in anesthetized dogs (in words): same conditions as Table II, dose under 100 μg/kg; for Hypotensive Effect Δ(mmHg): anesthetized dogs, mean value.
Description: Groups of three to four normotensive dogs anesthetized with pentobarbital sodium were used in the experiments. The test compounds were dissolved in a minimum amount of ethanol, and the solutions were administered intravenously in the vein cannulated with a polyethylene tube. The mean blood pressures in the carotid artery were recorded using a pressure transducer and a recorder. The hypotensive effect in Table II are a mean value obtained from at least three to four experiments.
The test system of series [2] is male spontaneously hypertensive rats (Wister Kyoto origin). In words: Hypotensive effect on conscious spontaneously hypertensive rats (oral). To be noted: Rattus norvegicus, tail-cuff method, read-out: pD30 (dose which decreases systolic blood pressure by 30 mmHg). The method, then:
(b) Hypotensive effect on conscious spontaneously hypertensive rate
The test compounds were orally administered to groups of four to five of male spontaneously hypertensive rats (Wister Kyoto origin) weighing about 300 g and aged 15 to 20 weeks. The systolic blood pressure was measured by the tail-cuff method using a plethysmograph.

Series [3] in a line: Test for acute toxicity (oral, rats). To be noted: rat, in vivo, rats, 8 days. The text has this: (§1) A suspension of a test compound in 0.5% CMC aqueous solution containing Tween 80 was orally administered to rats, and during 8 days the number of dead rats was counted.
Series [4] concerns rats. In words: Test for acute toxicity (oral, rats). Conditions: for number of dead rats [drawing 15]: 8 days.
Text: as §1

As for `CCOC(=O)c1c(C)cc2nc(C)n(-c3ccccc3Cl)c(=O)c2c1C` [3-(2-chlorophenyl)-6-ethoxycarbonyl-2,5,7-trimethyl-4(3H)-quinazolinone, reference compound], the “hypotensive effect in anesthetized dogs (in words)” value in series [1] was “did not exhibit a hypotensive effect”.
Same read-out and setting: the same measure for `CCOC(=O)c1c(C)cc2c(c1C)c(=O)n(-c1ccccc1Cl)c(=O)n2CCN(CC)CC` [3-(2-chlorophenyl)-6-ethoxycarbonyl-5,7-dimethyl-1-(2-(N,N-diethylamino)ethyl]-2,4(1H,3H)-quinazolinedione, reference compound]: “did not exhibit a hypotensive effect”; for `CCOC(=O)c1c(C)cc2nc(C)n(-c3ccccc3C(F)(F)F)c(=O)c2c1C` [6-ethoxycarbonyl-3-[2-(trifluoromethyl)phenyl]-2,5,7-trimethyl-4(3H)-quinazoline, reference compound]: “did not exhibit a hypotensive effect”.
On the same count and under the same terms, the same measure for `CCOC(=O)c1c(C)cc2c(c1C)c(=O)n(-c1ccccc1C(F)(F)F)c(=O)n2CCN(CC)CC` [6-ethoxycarbonyl-3-[2-(trifluoromethyl)phenyl]-5,7-dimethyl-1-[2-(N,N-diethylamino)ethyl]-2,4(1H,3H)-quinazolinedione, reference compound]: “did not exhibit a hypotensive effect”.
For `CCOC(=O)c1c(C)cc2nc(COC(=O)NC)n(-c3ccccc3Cl)c(=O)c2c1C` [Compound 1, 3-(2-chlorophenyl)-6-ethoxycarbonyl-5,7-dimethyl-2-(N-methylcarbamoyloxymethyl)-4(3H)-quinazolinone], the “Hypotensive Effect Δ(mmHg)” value in series [1] (dose 1.0 μg/kg) was 3 mmHg; in series [1] (dose 3.0 μg/kg), 6 mmHg; in series [1] (dose 10 μg/kg) it was 22 mmHg; in series [1] (dose 30 μg/kg) it was 43 mmHg; in series [1] (dose 100 μg/kg), 51 mmHg. Also, the ED (30 mmHg) in series [2] amounted to 2.8 mg/kg. The compound also came in with a 50% lethal dose (LD50) at 192 h in series [3] of 2500 mg/kg. Besides, the “toxicity (in words)” value in series [4] (acute, rats) is “very low”. For the same compound, the “number of dead rats [drawing 15]” value is listed as 2/6 in series [4] (dose 1200 mg/Kg); 3/6 in series [4] (dose 1715 mg/Kg); 3/6 in series [4] (dose 2450 mg/Kg); 3/6 in series [4] (dose 3500 mg/Kg); 5/6 in series [4] (dose 5000 mg/Kg).
For `CCOC(=O)c1c(C)cc2nc(COC(=O)NC(C)C)n(-c3ccccc3Cl)c(=O)c2c1C` [Compound 2, 3-(2-chlorophenyl)-6-ethoxycarbonyl-5,7-dimethyl-2-(N-isopropylcarbamoyloxymethyl)-4(3H)-quinazolinone], the “Hypotensive Effect Δ(mmHg)” value in series [1] (dose 1.0 μg/kg) is 24 mmHg; in series [1] (dose 3.0 μg/kg), 48 mmHg. Besides, the ED (30 mmHg) in series [2] was 0.42 mg/kg.
For the compound `CCOC(=O)c1c(C)cc2nc(COC(=O)N(C)C)n(-c3ccccc3Cl)c(=O)c2c1C.Cl` [Compound 3, 3-(2-chlorophenyl)-2-(N,N-dimethylcarbamoyloxymethyl)-6-ethoxy-carbonyl-5,7-dimethyl-4(3H)-quinazolinone hydrochloride], the “Hypotensive Effect Δ(mmHg)” value worked out at 0 mmHg in series [1] (dose 1.0 μg/kg); 0 mmHg in series [1] (dose 3.0 μg/kg); 1 mmHg in series [1] (dose 10 μg/kg); 6 mmHg in series [1] (dose 30 μg/kg); 20 mmHg in series [1] (dose 100 μg/kg).
In the case of `CCNC(=O)OCc1nc2cc(C)c(C(=O)OCC)c(C)c2c(=O)n1-c1ccccc1Cl` [Compound 9], the figures for the “Hypotensive Effect Δ(mmHg)” value in series [1] (dose 1.0 μg/kg) and in series [1] (dose 3.0 μg/kg) were 22 mmHg and 42 mmHg, respectively. Also, the ED (30 mmHg) in series [2] is 0.35 mg/kg.
With `CCCNC(=O)OCc1nc2cc(C)c(C(=O)OCC)c(C)c2c(=O)n1-c1ccccc1Cl` [Compound 10], the “Hypotensive Effect Δ(mmHg)” value in series [1] (dose 1.0 μg/kg) came out at 10 mmHg; in series [1] (dose 3.0 μg/kg) it was 25 mmHg.
As for `CCCCNC(=O)OCc1nc2cc(C)c(C(=O)OCC)c(C)c2c(=O)n1-c1ccccc1Cl` [Compound 12], the “Hypotensive Effect Δ(mmHg)” value came out at 10 mmHg in series [1] (dose 1.0 μg/kg) and 25 mmHg in series [1] (dose 3.0 μg/kg).
As to `CCOC(=O)c1c(C)cc2nc(COC(=O)NC(C)(C)C)n(-c3ccccc3Cl)c(=O)c2c1C` [Compound 14], the “Hypotensive Effect Δ(mmHg)” value in series [1] (dose 1.0 μg/kg) stood at 8 mmHg; in series [1] (dose 3.0 μg/kg) it was 10 mmHg; in series [1] (dose 10 μg/kg) it was 25 mmHg.
On to `CCOC(=O)c1c(C)cc2nc(COC(=O)NC(C)C)n(-c3ccccc3F)c(=O)c2c1C` [Compound 18], for which the entries for the “Hypotensive Effect Δ(mmHg)” value in series [1] (dose 1.0 μg/kg), in series [1] (dose 3.0 μg/kg) and in series [1] (dose 10 μg/kg) were 5 mmHg, 10 mmHg and 28 mmHg, respectively.
On to `CCOC(=O)c1c(C)cc2nc(COC(=O)NC(C)C)n(-c3ccccc3Br)c(=O)c2c1C` [Compound 19], for which the “Hypotensive Effect Δ(mmHg)” value in series [1] (dose 1.0 μg/kg) is on record as 20 mmHg; in series [1] (dose 3.0 μg/kg), 35 mmHg.
With `CCOC(=O)c1c(C)cc2nc(COC(=O)NC(C)C)n(-c3ccccc3C)c(=O)c2c1C` [Compound 23], the “Hypotensive Effect Δ(mmHg)” value in series [1] (dose 1.0 μg/kg) was 8 mmHg; in series [1] (dose 3.0 μg/kg), 25 mmHg.
As for `CCOC(=O)c1c(C)cc2nc(COC(=O)NC(C)C)n(-c3ccccc3C(F)(F)F)c(=O)c2c1C` [Compound 27], the “Hypotensive Effect Δ(mmHg)” value in series [1] (dose 1.0 μg/kg) is 0 mmHg; in series [1] (dose 3.0 μg/kg), 0 mmHg; in series [1] (dose 10 μg/kg), 8 mmHg; in series [1] (dose 30 μg/kg), 18 mmHg; in series [1] (dose 100 μg/kg), 25 mmHg.
Turning to `CCNC(=O)OCc1nc2cc(C)c(C(=O)OCC)c(C)c2c(=O)n1-c1ccccc1[N+](=O)[O-]` [Compound 28], the “Hypotensive Effect Δ(mmHg)” value in series [1] (dose 1.0 μg/kg) was found to be 0 mmHg; in series [1] (dose 3.0 μg/kg), 6 mmHg; in series [1] (dose 10 μg/kg) it was 9 mmHg; in series [1] (dose 30 μg/kg) it was 25 mmHg.
Regarding `COc1ccc(Cc2nccc3cc(OC)c(OC)cc23)cc1OC` [papaverine, reference compound], in series [1], the “hypotensive effect in anesthetized dogs (in words)” value is “did not exhibit a hypotensive effect”.
